Laboratory results reported in US9127016B2, “Small molecule inhibitors of Dusp6 and uses therefor” (University of Pittsburgh—Of the Commonwealth System of …, priority 2009, dated 2015).

Key:
[1] = tested on: FGF target genes sef and spry4; assay: Semi-quantitative RT-PCR of FGF target genes in treated embryos; format: in vivo, zebrafish; settings: 24 hpf, 6 hours, 10 μM and 20 μM, n=3
Protocol: Zebrafish embryos were treated at 24 hpf for 6 hours with BCI at 10 μM and 20 μM followed by total RNA extraction with Trizol (Invitrogen). cDNA synthesis with SuperScript II Reverse Transcriptase (Invitrogen) was performed as described by manufacture's protocol and by Tsang et al. 17. For PCR reaction, HotMaster Taq (Eppendorf) was used with the following primers: […]
Cycle conditions were: 94° C. 30 sec, 55° C. 45 sec, 72° C. 40 sec, for 25 cycles. PCR products were resolved on 3% agarose gels.

Dusp5 = assay: Zebrafish mRNA microinjection, rescue of sef expression, dusp5; format: in vivo; settings: 5 μM BCI, shield stage
Protocol: dusp6 and XFD mRNA for microinjection studies were generated as previously described (Tsang, M. et al. Development 131, 2769-79 (2004)). Both Dusp5 and Spry4 ORFs were amplified by RT-PCR from 24 hpf zebrafish with the following primers: […]
Amplified PCR products were subcloned into pCS2+, sequenced verified and mRNAs were synthesized as described previously. Embryos were injected with 500 pg mRNA at the 1-2 cell stage, treated with 5 μM BCI at the 1000-cell stage and fixed at shield stage for in situ hybridization.
In situ hybridization experiments were carried out as described previously (Kudoh, T. et al. Genome Res 11, 1979-87 (2001)). The probes eng3, krox20, sef, dusp6, gata4, nkx2.5, cmlc2, vmhc, scl, etsrp and hand2 were generated with a RNA labeling kit (Roche) (Tsang, M. et al. Development 131, 2769-79 (2004); Chen, J. N. et al. Development 122, 3809-16 (1996); Ekker, M., et al. Development 116, 1001-10 (1992); Liao, E. C. et al. Genes Dev 12, 621-6 (1998); Oxtoby, E. et al. Nucleic Acids Res 21, 1087-95 (1993); Pham, V. N. et al. Dev Biol 303, 772-83 (2007); Tsang, M., et al. Nat Cell Biol 4, 165-9 (2002); Yelon, D., et al. Dev Biol 214, 23-37 (1999); and Yelon, D. et al. Development 127, 2573-82 (2000)). The double fluorescent in situ hybridization protocol was described by Schoenbeck et al. (Dev Cell 13, 254-67 (2007)). […]

Dusp6 = molecular target: T1, Dusp6 (Homo sapiens, UniProt Q16828); assay: Basal Dusp6 dephosphorylation of OMFP; format: biochemical; design: His; made in house; settings: 100 μM
T1 sequence (Q16828 1-381): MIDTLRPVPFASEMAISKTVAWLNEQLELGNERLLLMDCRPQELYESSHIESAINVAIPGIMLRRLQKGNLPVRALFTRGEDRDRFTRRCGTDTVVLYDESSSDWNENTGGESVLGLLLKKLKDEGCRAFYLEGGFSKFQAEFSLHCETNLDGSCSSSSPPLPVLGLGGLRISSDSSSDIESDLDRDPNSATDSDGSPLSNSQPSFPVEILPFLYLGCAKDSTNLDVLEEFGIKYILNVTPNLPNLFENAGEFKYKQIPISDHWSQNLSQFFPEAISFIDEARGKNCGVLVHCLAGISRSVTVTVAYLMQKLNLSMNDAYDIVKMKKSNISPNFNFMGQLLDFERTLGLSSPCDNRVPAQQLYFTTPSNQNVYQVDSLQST
Protocol: For OMFP based ERK2 induced activation of Dusp6, recombinant His-tagged Dusp6 was expressed from a bacterial expression vector and 250 ng were incubated with the indicated concentrations of NSC95397 or BCI. OMFP was added at its apparent Km (100 μM) (Vogt, A. et al. J Biol Chem 280, 19078-86 (2005)). The final reaction volume was 15 μl. After 1 h at RT, OMF fluorescence was measured on an M5 multimode reader (Molecular Devices) at excitation/emission wavelengths of 485/525 nm. To assay activated Dusp6, 210 ng or 2.1 μg of recombinant ERK2 (Cell signaling) were added to Dusp6(210 ng)/BCI(100 μM) mixtures to measure activation at 1:1 and 1:10 ratio of substrate to enzyme. OMFP was immediately added and fluorescence (ex485/em525 nm) was read every 10 min for 130 min. Fold activation was calculated at 60 mins in each experiment.

O=C1/C(=C/c2ccccc2)C(NC2CCCCC2)c2ccccc21 (stereo not drawn) [Compound 3, (E)-2-benzylidene-3-(cyclohexylamino)-2,3-dihydro-1H-inden-1-one]
expression of sef and spry4 [1]: increase | reversal of phenotype caused by Dusp5 over-expression (Dusp5): little or no effect | inhibition of basal Dusp6 activity toward OMFP (Dusp6): did not inhibit basal Dusp6 activity
